Like-named read-outs stand apart in the source and are kept apart here. Where a SMILES comes first, the peptide text is derived from it.
Tests used:
[1] = tested on: human Kv1.3 channel (hKv1.3); assay type: cell-based; details: native peptides at 0.1 nM; human lymphocytes; Figs. 6A, S1
Method: Human Kv1.3 currents were recorded from activated peripheral blood mononuclear cells (see below) 3 to 4 days after activation. Heparinized human peripheral venous blood was obtained from healthy volunteers. Mononuclear cells were separated through Histopaque-1077 density gradient centrifugation. Collected cells were washed twice with Ca^2+- and Mg^2+-free Hanks’ solution containing 25 mM Hepes buffer, pH 7.4. Cells were cultured for 3 to 4 days in 24-well culture plates in a 5% CO2 incubator at 37 °C, in RPMI 1640 medium supplemented with 10% fetal calf serum (Sigma-Aldrich), 100 μg/ml penicillin, 100 μg/ml streptomycin, and 2 mM L-glutamine (density, 0.5 × 10^6 cells per ml). Phytohemagglutinin A (Sigma-Aldrich) was added to the medium at 10 μg/ml to amplify the Kv1.3 expression. Cells were washed gently twice with 2 ml of ECS for the patch-clamp experiments.
Conventional whole-cell patch-clamp electrophysiology was used to record ionic currents. Micropipettes were pulled from GC150F-7.5 borosilicate capillaries (Harvard Apparatus) with tip diameters between 0.5 and 1 μm resulting in a tip resistance of 2 to 8 MΩ in the extracellular (bath) solution. All measurements were carried out by using Axopatch 200B amplifier connected to a personal computer using Axon Digidata 1550A data acquisition hardware and Pclamp10.7 software (https://support.moleculardevices.com/s/article/Axon-pCLAMP-10-Electrophysiology-Data-Acquisition-Analysis-Software-Download-Page). The holding potential was −120 mV. Records were discarded when leak at the holding potential was >10% of peak current at the test potential. Experiments were performed at room temperature (20–24 °C). Before analysis, whole-cell current traces were corrected for ohmic leakage and digitally filtered with a three-point boxcar smoothing filter.
Solutions: all salts and components of the solutions were purchased from Sigma Aldrich. […]
Native peptides, phage-expressed peptides, and positive controls used for them were dissolved in ECS supplemented with 0.1 mg/ml bovine serum albumin (BSA; Sigma-Aldrich Hungary). Bath perfusion around the measured cell with different extracellular solutions was achieved using a gravity flow micro perfusion system using a rate of 0.5 ml/min. […]
Voltage protocols: For measurement of Kv1.1 to 1.3 currents, voltage steps to +50 mV were applied from a holding potential of −120 mV and the peak current was measured every 15 s. […] The remaining current fraction at a given molar concentration was calculated as I/I0, where I0 is the peak current in the absence and I is the peak current at equilibrium block or […] after ∼2 min perfusion by the investigated peptide/phage.

KcsA-Kv1.3 T+F chimera = target: T1, KcsA-Kv1.3 T+F chimera (Streptomyces lividans, UniProt P0A334, A54D/A57S/G53D/G56T/I60S/L59F/L81M/Q58G/R52A/R64D/T61S/Y62I/Y82H); experiment: Phage-binding competition assay, KcsA-Kv1.3 T+F; set-up: species or system human Kv1.3 turret and filter in Streptomyces lividans KcsA; details: for rank order of affinities, competition, KcsA-Kv1.3 T+F: Fig. 6F; for Rank, T+F chimera (Kv1.3): rank by competition IC50 among Vm24, HgTx1, KTX1
T1 construct: made in house; host or cells: E. coli C41(DE3) (pET45b)
T1 sequence (P0A334 1-160 R52A/G53D/A54D/G56T/A57S/Q58G/L59F/I60S/T61S/Y62I/R64D/L81M/Y82H): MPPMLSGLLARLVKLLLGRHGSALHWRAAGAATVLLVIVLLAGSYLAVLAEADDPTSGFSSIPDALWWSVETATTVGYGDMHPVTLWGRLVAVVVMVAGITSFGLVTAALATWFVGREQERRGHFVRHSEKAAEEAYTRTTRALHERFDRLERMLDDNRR
Method: Phage stock solutions were diluted to working concentration with phage resuspension buffer supplemented with 2 mM DDM. For protein immobilization, the following amounts were used in a final volume of 50 μl/well: wt KcsA, 0.1 μg; KcsA-Kv1.1 T-only, 0.005 μg; KcsA-Kv1.1 T+F, 0.02 μg; KcsA-Kv1.2 T-only, 0.01 μg; KcsA-Kv1.2 T+F, 0.1 μg; KcsA-Kv1.3 T-only, 0.01 μg; and KcsA-Kv1.3 T+F, 0.1 μg. Protein samples were diluted in 50 μl of storage buffer (20 mM Tris pH8.0, 300 mM KCl, 2 mM DDM) and were added to the designated wells of a Pierce Clear, 96-Well Nickel Coated Plate (15442, Thermo Fisher Scientific), then incubated for 1 h at room temperature on a horizontal shaker at 130 rpm. The plate was blocked for 1 h at room temperature with 180 μl/well TBS-BSA supplemented with 1 mM DDM. Following blocking, the wells were washed 4× with washing buffer (300 μl TBS-Tween, 0.1% v/v) using a Wellwash Versa microplate washer (Thermo Fisher Scientific); then 50 μl phage solution (in TBS-BSA-Tween, 0.1% v/v, 2 mM DDM) at determined phage concentration was added to the wells and incubated for 1 h at room temperature on a horizontal shaker. The plate was washed 4× with washing buffer, then 50 μl anti-M13 IgG HRP (MA5-36125, Invitrogen) diluted to 1:2500 in TBS-Tween (0.1% v/v) was added to the wells and incubated for 1 h at room temperature. The plate was washed again 4× with 300 μl/well washing buffer. Finally, 50 μl/well 1-Step Ultra TMB-ELISA solution (34028, Thermo Fisher Scientific) was added to the wells, and the developing signal was stopped with 50 μl 1M HCl after 5 to 10 min. The light absorbance signal was read at 450 nm with Byonoy absorbance 96 plate reader (Byonoy GmbH).
For protein immobilization, the following amounts were used in a final volume of 50 μl/well: KcsA-Kv1.1 T-only, 0.005 μg; KcsA-Kv1.1 T+F, 0.01 μg; KcsA-Kv1.2 T-only, 0.025 μg; KcsA-Kv1.2 T+F, 0.0125 μg; KcsA-Kv1.3 T-only, 0.01 μg; and KcsA-Kv1.3 T+F, 0.1 μg. Protein samples were diluted in storage buffer. Binding of given concentrations of relevant ligand-displaying phages quantified by light absorbance ([…]) were investigated in a similar manner as in phage ELISA-binding assay, while different concentrations of competing toxin test substances were applied simultaneously. The results were converted to percent inhibitions (percent displacement) of the indicator phage binding, and relative affinities of the tested toxins were assessed by plotting percent displacements against log concentrations and determining half maximal inhibitory concentrations (IC50) by sigmoidal curve fitting using “Sigmoidal dose-response (variable slope) with least squares method” algorithm in GraphPad Prism 8 using the following equation: Y=Bottom+Top−Bottom/1+10^(LogEC50−×)⋅HillSlope

[2] = HgTx1-phage competition, T+F KcsA-Kv1.3, value given in figure, sigmoidal fit to means of three replicates, read-out: IC50 (Fig. 6F)

Compound	rank order of blocking of native Kv1.3 [1]	IC50 (KcsA-Kv1.3 T+F chimera; [2]) [nM]	rank order of affinities, competition, KcsA-Kv1.3 T+F (KcsA-Kv1.3 T+F chimera; HgTx1-phage competition)	Rank, T+F chimera (Kv1.3) (KcsA-Kv1.3 T+F chimera)	IC50 (KcsA-Kv1.3 T+F chimera; displacement of HgTx1-phage, KcsA-Kv1.3 T+F 0.1 μg/well on nickel-coated plate, phage ELISA absorbance, mean ± SD (n = 3), read-out: IC50, T+F chimera (Kv1.3)) [nM]
CC[C@H](C)[C@@H]1NC(=O)CNC(=O)[C@H](Cc2ccccc2)NC(=O)[C@H](CCC(N)=O)NC(=O)[C@H](C)NC(=O)[C@H](CCCCN)NC(=O)[C@@H]2CSSC[C@@H](C(=O)N[C@@H](Cc3ccc(O)cc3)C(=O)N3CCC[C@H]3C(=O)N[C@@H](Cc3c[nH]cn3)C(=O)O)NC(=O)[C@H](CCCCN)NC(=O)[C@@H]3CSSC[C@H](NC(=O)[C@H](CCC(N)=O)NC(=O)[C@H](CCCCN)NC(=O)[C@@H]4CCCN4C(=O)[C@H](CO)NC(=O)[C@H]([C@@H](C)O)NC(=O)[C@@H](NC(=O)[C@H](CCCCN)NC(=O)[C@@H](NC(=O)[C@H](CC(=O)O)NC(=O)[C@@H](NC(=O)[C@@H](NC(=O)[C@@H](N)[C@@H](C)O)C(C)C)[C@@H](C)CC)C(C)C)CSSC[C@H](NC(=O)[C@H](CCCCN)NC(=O)[C@H](C)NC(=O)CNC(=O)[C@H](C)NC(=O)[C@H](CCCNC(=N)N)NC1=O)C(=O)N[C@@H](CCSC)C(=O)N[C@@H](CC(N)=O)C(=O)NCC(=O)N[C@@H](CCCCN)C(=O)N3)C(=O)N[C@@H](CC(C)C)C(=O)N1CCC[C@H]1C(=O)N1CCC[C@H]1C(=O)N2 [HgTx1, Hongotoxin-1] (HELM PEPTIDE1{T.V.I.D.V.K.C.T.S.P.K.Q.C.L.P.P.C.K.A.Q.F.G.I.R.A.G.A.K.C.M.N.G.K.C.K.C.Y.P.H}$PEPTIDE1,PEPTIDE1,7:R3-29:R3|PEPTIDE1,PEPTIDE1,13:R3-34:R3|PEPTIDE1,PEPTIDE1,17:R3-36:R3$$$V2.0; N-terminus and C-terminus assumed)	Vm24 > HgTX1 > KTX1	0.107	Vm24 > HgTx1 > KTX1	2	–
CC[C@H](C)[C@H](NC(=O)[C@H](CCC(=O)O)NC(=O)[C@@H](NC(=O)CN)C(C)C)C(=O)N[C@@H](CC(N)=O)C(=O)N[C@H](C(=O)N[C@@H](CCCCN)C(=O)N[C@H]1CSSC[C@@H]2NC(=O)[C@H](CCCCN)NC(=O)CNC(=O)[C@H](Cc3ccccc3)NC(=O)[C@H](CCCNC(=N)N)NC(=O)[C@H](CCSC)NC(=O)CNC(=O)[C@H](C)NC(=O)[C@H](CC(=O)O)NC(=O)[C@H](CCCCN)NC(=O)[C@@H]3CSSC[C@@H](C(=O)N[C@H](C(=O)N4CCC[C@H]4C(=O)N[C@@H](CCCCN)C(=O)O)[C@@H](C)O)NC(=O)[C@H](Cc4c[nH]cn4)NC(=O)[C@H](CSSC[C@H](NC(=O)[C@H](CCC(N)=O)NC(=O)[C@@H]4CCCN4C(=O)[C@H](CO)NC(=O)CNC(=O)[C@H](CO)NC1=O)C(=O)N[C@@H](CC(C)C)C(=O)N[C@@H](CCCCN)C(=O)N1CCC[C@H]1C(=O)N3)NC(=O)[C@H](CCCCN)NC(=O)[C@H](CCCNC(=N)N)NC(=O)[C@H](CC(N)=O)NC(=O)[C@H](CCSC)NC2=O)C(C)C [KTX1, Kaliotoxin-1]	Vm24 > HgTX1 > KTX1	–	Vm24 > HgTx1 > KTX1	3	98.2
CC[C@H](C)[C@H](NC(=O)[C@H](C)NC(=O)[C@H](C)NC(=O)[C@H](C)N)C(=O)N[C@@H](CO)C(=O)N[C@H]1CSSC[C@@H]2NC(=O)[C@H](CCCCN)NC(=O)CNC(=O)[C@H](CC(N)=O)NC(=O)[C@H](CCCCN)NC(=O)[C@@H]3CSSC[C@@H](C(N)=O)NC(=O)[C@H](Cc4ccc(O)cc4)NC(=O)[C@H](Cc4ccc(O)cc4)NC(=O)[C@@H]4CSSC[C@H](NC(=O)[C@H](CCCCN)NC(=O)[C@@H]5CCCN5C(=O)[C@@H]5CCCN5C(=O)[C@H](CSSC[C@H](NC(=O)[C@H](CCCCN)NC(=O)[C@H](CCCNC(=N)N)NC(=O)[C@H](CC(N)=O)NC(=O)[C@H](CCSC)NC2=O)C(=O)N[C@@H](CCCCN)C(=O)N4)NC(=O)[C@H](CCC(=O)O)NC(=O)[C@@H]2CCCN2C(=O)[C@H](CO)NC(=O)CNC(=O)[C@H](C(C)C)NC1=O)C(=O)N[C@@H](CCCNC(=N)N)C(=O)N[C@@H](C)C(=O)N[C@@H](CCC(N)=O)C(=O)NCC(=O)N3 [Vm24, Vm24 toxin]	Vm24 > HgTX1 > KTX1	0.0359	Vm24 > HgTx1 > KTX1	1	–
